These results are taken from patent US9192638B2, “Preparation comprising amino acids and plants and its activity in the alcohol detoxification” (Modutech S.A., priority 2009, dated 2015).

Structures are written as SMILES.

This assay deals with Mice. The assay can be described thus: Acute cerebral ischemia hypoxia survival time of mice, different formulations (Example 1). Type of assay: in vivo. The conditions noted are these: 800 mg/kg per day oral, 7 days, sacrificed 1 h after last dosing. Here is the method:
The acute cerebral ischemia hypoxia survival time of the mice through different formulations is provided.
Dosage: 800 mg/kg per day per group. The test sample is prepared by redistilled water and drenched into the stomach through the mouth for seven days continuously.
Testing Method: The mice are respectively sacrificed one hour after the last stomach drenching, and the time from the sacrifice of the mice to the time when they stop gasping through mouths is recorded with a second counter.

For `NC(=O)NCCC[C@H](N)C(=O)O` [Sample 1, Citrulline], the “Gasp Stopping Time” value turned out to be 12.6 s.
